Data reported in PubChem BioAssay (NCI).
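1) Cells in 96-well plates. 2) Compound, 48 h, 5 concentrations. 3) Linear interpolation between surrounding doses. 4) Unreached endpoint = highest concentration. TGI: total growth inhibition.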

Legend:
Assay in all cases: NCI tumour cell line growth inhibition, 48 h
A498 renal = tested on: A498 renal
A549 NSCLC = tested on: A549 NSCLC
ACHN renal = tested on: ACHN renal
CAKI-1 renal = tested on: CAKI-1 renal
CCRF-CEM leukemia = tested on: CCRF-CEM leukemia
DMS 114 small cell lung = tested on: DMS 114 small cell lung
DMS 273 small cell lung = tested on: DMS 273 small cell lung
EKVX NSCLC = tested on: EKVX NSCLC
HCT-116 colon = tested on: HCT-116 colon
HCT-15 colon = tested on: HCT-15 colon
HL-60(TB) leukemia = tested on: HL-60(TB) leukemia
HOP-92 NSCLC = tested on: HOP-92 NSCLC
HT29 colon = tested on: HT29 colon
IGROV1 ovarian = tested on: IGROV1 ovarian
K-562 leukemia = tested on: K-562 leukemia
KM12 colon = tested on: KM12 colon
KM20L2 colon = tested on: KM20L2 colon
LOX IMVI melanoma = tested on: LOX IMVI melanoma
M14 melanoma = tested on: M14 melanoma
M19-MEL melanoma = tested on: M19-MEL melanoma
MOLT-4 leukemia = tested on: MOLT-4 leukemia
NCI-H226 lung = tested on: NCI-H226 lung
NCI-H23 lung = tested on: NCI-H23 lung
NCI-H460 lung = tested on: NCI-H460 lung
NCI-H522 lung = tested on: NCI-H522 lung
OVCAR-3 ovarian = tested on: OVCAR-3 ovarian
OVCAR-4 ovarian = tested on: OVCAR-4 ovarian
OVCAR-5 ovarian = tested on: OVCAR-5 ovarian
OVCAR-8 ovarian = tested on: OVCAR-8 ovarian
RPMI-8226 leukemia = tested on: RPMI-8226 leukemia
RXF 393 renal = tested on: RXF 393 renal
RXF-631 renal = tested on: RXF-631 renal
SF-268 CNS = tested on: SF-268 CNS
SF-295 CNS = tested on: SF-295 CNS
SF-539 CNS = tested on: SF-539 CNS
SK-MEL-28 melanoma = tested on: SK-MEL-28 melanoma
SK-MEL-5 melanoma = tested on: SK-MEL-5 melanoma
SK-OV-3 ovarian = tested on: SK-OV-3 ovarian
SN12C renal = tested on: SN12C renal
SNB-19 CNS = tested on: SNB-19 CNS
SNB-75 CNS = tested on: SNB-75 CNS
SNB-78 CNS = tested on: SNB-78 CNS
TK-10 renal = tested on: TK-10 renal
U251 CNS = tested on: U251 CNS
UACC-257 melanoma = tested on: UACC-257 melanoma
UACC-62 melanoma = tested on: UACC-62 melanoma
UO-31 renal = tested on: UO-31 renal
786-0 renal = tested on: 786-0 renal
COLO 205 colon = tested on: COLO 205 colon
DLD-1 colon = tested on: DLD-1 colon
HCC-2998 colon = tested on: HCC-2998 colon
HOP-18 NSCLC = tested on: HOP-18 NSCLC
HOP-62 NSCLC = tested on: HOP-62 NSCLC
LXFL 529 NSCLC = tested on: LXFL 529 NSCLC
MALME-3M melanoma = tested on: MALME-3M melanoma
SK-MEL-2 melanoma = tested on: SK-MEL-2 melanoma
SR leukemia = tested on: SR leukemia
SW-620 colon = tested on: SW-620 colon
XF 498 CNS = tested on: XF 498 CNS
MCF7 breast = tested on: MCF7 breast
NCI/ADR-RES ovarian = tested on: NCI/ADR-RES ovarian
P388 leukemia = tested on: P388 leukemia
P388/ADR leukemia = tested on: P388/ADR leukemia
SN12K1 renal = tested on: SN12K1 renal

O=C1CCCCC2N(C(c3ccccc3)c3ccccc3)CC[C@@]12c1ccccc1 (mixture of isomers)
TGI (A498 renal): > 10 µM | TGI (A549 NSCLC): > 10 µM | TGI (ACHN renal): > 10 µM | TGI (CAKI-1 renal): > 10 µM | TGI (CCRF-CEM leukemia): > 10 µM | TGI (DMS 114 small cell lung): > 10 µM | TGI (DMS 273 small cell lung): > 10 µM | TGI (EKVX NSCLC): > 10 µM | TGI (HCT-116 colon): > 10 µM | TGI (HCT-15 colon): > 10 µM | TGI (HL-60(TB) leukemia): 9.4 µM | TGI (HOP-92 NSCLC): > 10 µM | TGI (HT29 colon): > 10 µM | TGI (IGROV1 ovarian): > 10 µM | TGI (K-562 leukemia): > 10 µM | TGI (KM12 colon): > 10 µM | TGI (KM20L2 colon): > 10 µM | TGI (LOX IMVI melanoma): > 10 µM | TGI (M14 melanoma): > 10 µM | TGI (M19-MEL melanoma): > 10 µM | TGI (MOLT-4 leukemia): > 10 µM | TGI (NCI-H226 lung): > 10 µM | TGI (NCI-H23 lung): > 10 µM | TGI (NCI-H460 lung): > 10 µM | TGI (NCI-H522 lung): > 10 µM | TGI (OVCAR-3 ovarian): > 10 µM | TGI (OVCAR-4 ovarian): > 10 µM | TGI (OVCAR-5 ovarian): > 10 µM | TGI (OVCAR-8 ovarian): > 10 µM | TGI (RPMI-8226 leukemia): 9.31 µM | TGI (RXF 393 renal): > 10 µM | TGI (RXF-631 renal): > 10 µM | TGI (SF-268 CNS): > 10 µM | TGI (SF-295 CNS): > 10 µM | TGI (SF-539 CNS): > 10 µM | TGI (SK-MEL-28 melanoma): > 10 µM | TGI (SK-MEL-5 melanoma): > 10 µM | TGI (SK-OV-3 ovarian): > 10 µM | TGI (SN12C renal): > 10 µM | TGI (SNB-19 CNS): > 10 µM | TGI (SNB-75 CNS): > 10 µM | TGI (SNB-78 CNS): > 10 µM | TGI (TK-10 renal): > 10 µM | TGI (U251 CNS): > 10 µM | TGI (UACC-257 melanoma): > 10 µM | TGI (UACC-62 melanoma): > 10 µM | TGI (UO-31 renal): > 10 µM

O=C(/C=C/c1c(O)ccc2ccccc12)c1ccccc1
TGI (786-0 renal): > 100 µM | TGI (A498 renal): > 100 µM | TGI (A549 NSCLC): > 100 µM | TGI (ACHN renal): > 100 µM | TGI (CAKI-1 renal): > 100 µM | TGI (CCRF-CEM leukemia): > 100 µM | TGI (COLO 205 colon): > 100 µM | TGI (DLD-1 colon): > 100 µM | TGI (DMS 114 small cell lung): > 100 µM | TGI (DMS 273 small cell lung): > 100 µM | TGI (EKVX NSCLC): > 100 µM | TGI (HCC-2998 colon): > 100 µM | TGI (HCT-116 colon): > 100 µM | TGI (HCT-15 colon): > 100 µM | TGI (HL-60(TB) leukemia): > 100 µM | TGI (HOP-18 NSCLC): > 100 µM | TGI (HOP-62 NSCLC): > 100 µM | TGI (HOP-92 NSCLC): > 100 µM | TGI (HT29 colon): 30.2 µM | TGI (IGROV1 ovarian): > 100 µM | TGI (K-562 leukemia): > 100 µM | TGI (KM12 colon): > 100 µM | TGI (KM20L2 colon): > 100 µM | TGI (LOX IMVI melanoma): 44.9 µM | TGI (LXFL 529 NSCLC): > 100 µM | TGI (M14 melanoma): > 100 µM | TGI (M19-MEL melanoma): > 100 µM | TGI (MALME-3M melanoma): > 100 µM | TGI (MOLT-4 leukemia): > 100 µM | TGI (NCI-H226 lung): > 100 µM | TGI (NCI-H23 lung): > 100 µM | TGI (NCI-H460 lung): > 100 µM | TGI (NCI-H522 lung): > 100 µM | TGI (OVCAR-3 ovarian): > 100 µM | TGI (OVCAR-4 ovarian): > 100 µM | TGI (OVCAR-5 ovarian): > 100 µM | TGI (OVCAR-8 ovarian): > 100 µM | TGI (RPMI-8226 leukemia): 80.6 µM | TGI (RXF 393 renal): > 100 µM | TGI (RXF-631 renal): > 100 µM | TGI (SF-268 CNS): > 100 µM | TGI (SF-295 CNS): > 100 µM | TGI (SF-539 CNS): > 100 µM | TGI (SK-MEL-2 melanoma): > 100 µM | TGI (SK-MEL-28 melanoma): > 100 µM | TGI (SK-MEL-5 melanoma): > 100 µM | TGI (SK-OV-3 ovarian): > 100 µM | TGI (SN12C renal): > 100 µM | TGI (SNB-19 CNS): > 100 µM | TGI (SNB-75 CNS): 4.52 µM | TGI (SNB-78 CNS): > 100 µM | TGI (SR leukemia): > 100 µM | TGI (SW-620 colon): 83.7 µM | TGI (TK-10 renal): > 100 µM | TGI (U251 CNS): > 100 µM | TGI (UACC-257 melanoma): > 100 µM | TGI (UACC-62 melanoma): > 100 µM | TGI (UO-31 renal): > 100 µM | TGI (XF 498 CNS): > 100 µM

C=C(C)C(=O)OC1CCC2(C)C(CCC3C2CCC2(C)C(c4ccc(=O)oc4)CC4OC432)C1 (stereo not drawn)
TGI (A498 renal): 21.8 µM | TGI (A549 NSCLC): 25.4 µM | TGI (CAKI-1 renal): 15 µM | TGI (CCRF-CEM leukemia): 15.3 µM | TGI (COLO 205 colon): 22.8 µM | TGI (DLD-1 colon): 7.38 µM | TGI (DMS 114 small cell lung): 9.11 µM | TGI (DMS 273 small cell lung): 20.5 µM | TGI (EKVX NSCLC): 11 µM | TGI (HCC-2998 colon): 17.8 µM | TGI (HCT-116 colon): 19 µM | TGI (HCT-15 colon): 32 µM | TGI (HL-60(TB) leukemia): 9.64 µM | TGI (HOP-18 NSCLC): 104 µM | TGI (HOP-62 NSCLC): 10.5 µM | TGI (HOP-92 NSCLC): 9.96 µM | TGI (HT29 colon): 52 µM | TGI (IGROV1 ovarian): 20.5 µM | TGI (K-562 leukemia): 32.9 µM | TGI (KM12 colon): 24.3 µM | TGI (KM20L2 colon): 40.4 µM | TGI (LOX IMVI melanoma): 24.1 µM | TGI (M19-MEL melanoma): 10.7 µM | TGI (MALME-3M melanoma): 26.4 µM | TGI (MCF7 breast): 13.2 µM | TGI (MOLT-4 leukemia): 15.5 µM | TGI (NCI-H226 lung): 48.1 µM | TGI (NCI-H23 lung): 19.3 µM | TGI (NCI-H460 lung): 7.99 µM | TGI (NCI-H522 lung): 8.78 µM | TGI (NCI/ADR-RES ovarian): 26 µM | TGI (OVCAR-3 ovarian): 15.1 µM | TGI (OVCAR-4 ovarian): 34 µM | TGI (OVCAR-5 ovarian): 106 µM | TGI (OVCAR-8 ovarian): 24 µM | TGI (P388 leukemia): 15.5 µM | TGI (P388/ADR leukemia): 31.7 µM | TGI (RPMI-8226 leukemia): 20.1 µM | TGI (RXF 393 renal): 9.95 µM | TGI (SF-268 CNS): 31.9 µM | TGI (SF-295 CNS): 23.1 µM | TGI (SF-539 CNS): 27.9 µM | TGI (SK-MEL-2 melanoma): 10.2 µM | TGI (SK-MEL-28 melanoma): 44.5 µM | TGI (SK-MEL-5 melanoma): 19.1 µM | TGI (SK-OV-3 ovarian): 99.8 µM | TGI (SN12C renal): 24.1 µM | TGI (SN12K1 renal): 17.6 µM | TGI (SNB-19 CNS): 72.5 µM | TGI (SNB-75 CNS): 36.6 µM | TGI (SNB-78 CNS): 60.7 µM | TGI (SW-620 colon): 25.1 µM | TGI (U251 CNS): 30.3 µM | TGI (UACC-257 melanoma): 17.2 µM | TGI (UACC-62 melanoma): 17.2 µM | TGI (UO-31 renal): 35.8 µM | TGI (XF 498 CNS): 21 µM
